# Source: PubChem BioAssay (NCI)
#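 The compound was tested at five concentrations on cells cultured in 96-well plates, with a 48-hour exposure period. TGI denotes the concentration required for complete inhibition of growth.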
# Tests used:
# Test in all cases: NCI tumour cell line growth inhibition, 48 h
# [1] = system: OVCAR-5 ovarian
# [2] = system: PC-3 prostate
# [3] = system: CAKI-1 renal
# [4] = system: UO-31 renal
# [5] = system: MDA-MB-231 breast
# [6] = system: HCC-2998 colon
# [7] = system: ACHN renal
# [8] = system: 786-0 renal
# [9] = system: BT-549 breast
# [10] = system: NCI-H460 lung
# [11] = system: SN12C renal
# [12] = system: DU-145 prostate
# [13] = system: RXF 393 renal
# [14] = system: SK-MEL-2 melanoma
# [15] = system: SNB-19 CNS
# [16] = system: K-562 leukemia
# [17] = system: SF-268 CNS
# [18] = system: SK-OV-3 ovarian
# [19] = system: HCT-116 colon
# [20] = system: A498 renal
# [21] = system: NCI/ADR-RES ovarian
# [22] = system: SNB-75 CNS
# [23] = system: UACC-62 melanoma
# [24] = system: M14 melanoma
# [25] = system: OVCAR-4 ovarian
# [26] = system: SW-620 colon
# [27] = system: NCI-H226 lung
# [28] = system: MCF7 breast
# [29] = system: OVCAR-3 ovarian
# [30] = system: NCI-H522 lung
# [31] = system: SK-MEL-5 melanoma
# [32] = system: TK-10 renal
# [33] = system: SK-MEL-28 melanoma
# [34] = system: MOLT-4 leukemia
# [35] = system: MDA-N
# [36] = system: HT29 colon
# [37] = system: COLO 205 colon
# [38] = system: KM12 colon
# [39] = system: MALME-3M melanoma
# [40] = system: UACC-257 melanoma
# [41] = system: A549 NSCLC
# [42] = system: EKVX NSCLC
# [43] = system: RPMI-8226 leukemia
# [44] = system: HOP-92 NSCLC
# [45] = system: SF-295 CNS
# [46] = system: MDA-MB-435
# [47] = system: NCI-H23 lung
# [48] = system: U251 CNS
# [49] = system: HCT-15 colon
# [50] = system: CCRF-CEM leukemia
# [51] = system: LOX IMVI melanoma
# [52] = system: OVCAR-8 ovarian
# [53] = system: SF-539 CNS
# [54] = system: IGROV1 ovarian
# [55] = system: HOP-62 NSCLC
# [56] = system: HL-60(TB) leukemia
# [57] = system: HS 578T breast
# [58] = system: SR leukemia
smiles,measurement,setting,value
Clc1ccc(OCc2nnc(CCCCCCCCc3nnc(COc4ccc(Cl)cc4)o3)o2)cc1,TGI,[1],> 100 µM
same,TGI,[2],> 100 µM
same,TGI,[3],> 100 µM
same,TGI,[4],> 100 µM
same,TGI,[5],> 100 µM
same,TGI,[6],> 100 µM
same,TGI,[7],> 100 µM
same,TGI,[8],> 100 µM
same,TGI,[9],> 100 µM
same,TGI,[10],> 100 µM
same,TGI,[11],> 100 µM
same,TGI,[12],> 100 µM
same,TGI,[13],> 100 µM
same,TGI,[14],> 100 µM
same,TGI,[15],> 100 µM
same,TGI,[16],> 100 µM
same,TGI,[17],> 100 µM
same,TGI,[18],> 100 µM
same,TGI,[19],28.2 µM
same,TGI,[20],> 100 µM
same,TGI,[21],> 100 µM
same,TGI,[22],> 100 µM
same,TGI,[23],> 100 µM
same,TGI,[24],> 100 µM
same,TGI,[25],> 100 µM
same,TGI,[26],> 100 µM
same,TGI,[27],> 100 µM
same,TGI,[28],> 100 µM
same,TGI,[29],> 100 µM
same,TGI,[30],> 100 µM
same,TGI,[31],> 100 µM
same,TGI,[32],> 100 µM
same,TGI,[33],> 100 µM
same,TGI,[34],> 100 µM
same,TGI,[35],> 100 µM
same,TGI,[36],> 100 µM
same,TGI,[37],> 100 µM
same,TGI,[38],> 100 µM
same,TGI,[39],> 100 µM
same,TGI,[40],> 100 µM
same,TGI,[41],> 100 µM
same,TGI,[42],> 100 µM
same,TGI,[43],> 100 µM
same,TGI,[44],> 100 µM
same,TGI,[45],> 100 µM
same,TGI,[46],> 100 µM
same,TGI,[47],> 100 µM
same,TGI,[48],> 100 µM
same,TGI,[49],> 100 µM
COc1cccc(NC(=O)c2c(SC)n[nH]c2N)c1,TGI,[1],> 100 µM
same,TGI,[2],> 100 µM
same,TGI,[3],> 100 µM
same,TGI,[5],> 100 µM
same,TGI,[6],> 100 µM
same,TGI,[7],> 100 µM
same,TGI,[8],> 100 µM
same,TGI,[9],> 100 µM
same,TGI,[10],> 100 µM
same,TGI,[11],> 100 µM
same,TGI,[50],> 100 µM
same,TGI,[13],> 100 µM
same,TGI,[51],> 100 µM
same,TGI,[52],> 100 µM
same,TGI,[53],> 100 µM
same,TGI,[14],> 100 µM
same,TGI,[15],> 100 µM
same,TGI,[16],> 100 µM
same,TGI,[17],> 100 µM
same,TGI,[18],> 100 µM
same,TGI,[19],> 100 µM
same,TGI,[20],> 100 µM
same,TGI,[21],> 100 µM
same,TGI,[22],> 100 µM
same,TGI,[23],> 100 µM
same,TGI,[54],> 100 µM
same,TGI,[24],> 100 µM
same,TGI,[25],> 100 µM
same,TGI,[26],> 100 µM
same,TGI,[27],> 100 µM
same,TGI,[28],> 100 µM
same,TGI,[30],> 100 µM
same,TGI,[31],> 100 µM
same,TGI,[32],> 100 µM
same,TGI,[33],> 100 µM
same,TGI,[55],> 100 µM
same,TGI,[34],> 100 µM
same,TGI,[35],> 100 µM
same,TGI,[56],> 100 µM
same,TGI,[36],> 100 µM
same,TGI,[37],> 100 µM
same,TGI,[38],> 100 µM
same,TGI,[39],> 100 µM
same,TGI,[40],> 100 µM
same,TGI,[57],> 100 µM
same,TGI,[41],> 100 µM
same,TGI,[42],> 100 µM
same,TGI,[43],> 100 µM
same,TGI,[44],> 100 µM
same,TGI,[45],> 100 µM
same,TGI,[46],> 100 µM
same,TGI,[48],> 100 µM
same,TGI,[49],> 100 µM
Nc1nonc1-c1noc(-c2nonc2N)[n+]1[O-],TGI,[1],> 100 µM
same,TGI,[2],> 100 µM
same,TGI,[3],51.6 µM
same,TGI,[4],> 100 µM
same,TGI,[5],> 100 µM
same,TGI,[6],> 100 µM
same,TGI,[7],> 100 µM
same,TGI,[8],> 100 µM
same,TGI,[9],> 100 µM
same,TGI,[10],> 100 µM
same,TGI,[11],> 100 µM
same,TGI,[50],32.8 µM
same,TGI,[12],> 100 µM
same,TGI,[13],51.1 µM
same,TGI,[51],> 100 µM
same,TGI,[14],> 100 µM
same,TGI,[15],> 100 µM
same,TGI,[16],> 100 µM
same,TGI,[17],> 100 µM
same,TGI,[18],> 100 µM
same,TGI,[19],> 100 µM
same,TGI,[20],> 100 µM
same,TGI,[21],> 100 µM
same,TGI,[23],> 100 µM
same,TGI,[54],> 100 µM
same,TGI,[24],> 100 µM
same,TGI,[25],> 100 µM
same,TGI,[26],79.2 µM
same,TGI,[27],> 100 µM
same,TGI,[28],> 100 µM
same,TGI,[30],28 µM
same,TGI,[31],> 100 µM
same,TGI,[32],> 100 µM
same,TGI,[33],> 100 µM
same,TGI,[55],> 100 µM
same,TGI,[58],> 100 µM
same,TGI,[34],> 100 µM
same,TGI,[35],> 100 µM
same,TGI,[36],33.6 µM
same,TGI,[38],> 100 µM
same,TGI,[39],42.5 µM
same,TGI,[40],> 100 µM
same,TGI,[57],> 100 µM
same,TGI,[41],90.7 µM
same,TGI,[42],82.8 µM
same,TGI,[43],> 100 µM
same,TGI,[44],> 100 µM
same,TGI,[45],> 100 µM
same,TGI,[46],> 100 µM
same,TGI,[47],> 100 µM
same,TGI,[48],> 100 µM
same,TGI,[49],49.1 µM
